Reference: article PMC5468484 (The Pediatric infectious disease journal, 2017)
“Also recorded” adds a separate entry of the source. Read-outs that look alike come from different tables or passages of the source.

How the values were obtained:
[1] = human plasma; cited from earlier work
clinical = conditions: human, in vivo, iv
Safety evaluation = type: in vivo, human
[2] = cited from earlier work
[3] = tested on: acute bacterial skin and skin structure infections; conditions: adults, cited from earlier work
[4] = for Terminal half-life: study DUR001-106, single IV dose, post-hoc slope of gamma phase, three compartment model, median (range)
[5] = Long term stability of dalbavancin plasma samples; type: in vitro ADME, human; conditions: plasma (K2-EDTA), 368 days stored at −20°C, LC-MS/MS
[6] = tested on: cytochrome P450 isoenzymes; conditions: cited from earlier work
[7] = among the 36 treatment-emergent AEs
[8] = children 3 months to 11 years (N=34)
[9] = children 3 months to 11 years, single IV dose
[10] = nonparametric bootstrap (N=1000) of final model
[11] = three-compartment model, 43 subjects, typical value at weight 40.9 kg

Compound: CN[C@H]1C(=O)N[C@@H]2Cc3ccc(cc3)Oc3cc4cc(c3O[C@@H]3O[C@H](C(=O)O)[C@@H](O)[C@H](O)[C@H]3NC(=O)CCCCCCCCC(C)C)Oc3ccc(cc3Cl)[C@@H](O)[C@@H]3NC(=O)[C@H](NC(=O)[C@@H]4NC(=O)[C@@H](NC2=O)c2cc(cc(O)c2Cl)Oc2cc1ccc2O)c1ccc(O)c(c1)-c1c(O[C@H]2O[C@H](CO)[C@@H](O)[C@H](O)[C@@H]2O)cc(O)cc1[C@@H](C(=O)NCCCN(C)C)NC3=O [dalbavancin]
- Binding to plasma proteins [1]: 93%
- clearance (clinical): 1.05 mL/h/kg
- clearance (clinical; 10 mg/kg): 1.23 mL/h/kg
- clearance (clinical; 15 mg/kg): 0.795 mL/h/kg
- AEs deemed possibly related to dalbavancin treatment (Safety evaluation; N=1 each): rash, diaper dermatitis, urticaria, and asymptomatic hepatic enzyme elevation
- Treatment-emergent AEs considered mild (Safety evaluation; [7]): 26
- Treatment-emergent AEs considered moderate (Safety evaluation; [7]): 6
- Treatment-emergent AEs considered severe (Safety evaluation; [7]): 4
- Number of treatment-emergent AEs (Safety evaluation; [8]): 36
- Serious or severe treatment-emergent AEs considered related to dalbavancin treatment (Safety evaluation; [8]): None and no serious or severe AEs related to treatment
- Subjects who experienced a serious AE (Safety evaluation; [8]): Five
- Deaths (Safety evaluation; [9]): no deaths were reported
- Tolerability (Safety evaluation; [9]): well tolerated
- AE probably related to study treatment (Safety evaluation; one subject): infusion site discomfort
- Adverse events assessed as possibly or probably related to treatment (Safety evaluation; out of 36 treatment-emergent adverse events): Five
- Volume of distribution at steady-state ([2]; adults): 15.9 L
- Eliminated as the parent compound in feces and urine [2]: ~ 70%
- Efficacy of single 1500 mg infusion versus the 2-dose regimen ([3]; ABSSSI): as effective as the 2-dose regimen; also recorded: noninferior to the 2-dose regimen
- Efficacy versus intravenous vancomycin with subsequent oral linezolid in ABSSSI ([3]; two studies, 2-dose dalbavancin regimen): not inferior; also recorded: noninferior
- Terminal half-life ([4]; 2 years to <6 years (N=11)): 315 (271–332) h
- Terminal half-life ([4]; 3 months to <2 years (N=11)): 279 (244–298) h
- Terminal half-life ([4]; 6 to 11 years (N=11)): 390 (317–490) h
- Power coefficient of albumin on Vc, final model estimate ([4]; (Albumin/3.7)^coefficient): −0.73
- Power coefficient of albumin on Vc, bootstrap median [4, 10]: −0.72
- Power coefficient of weight on volume parameters, bootstrap median [4, 10]: 0.95
- Power coefficient of weight on volume parameters, final model estimate ([4]; same coefficient for Vc, Vp1, Vp2, ((Weight in kg)/40.9)^coefficient): 0.95
- Vp1 (volume of distribution for peripheral compartment 1), final model estimate [4, 11]: 2.90 L
- Vp2 (volume of distribution for peripheral compartment 2), final model estimate [4, 11]: 2.93 L
- Long term stability of plasma samples [5]: stable
- Substrate, inhibitor or inducer of cytochrome P450 isoenzymes [6]: not a substrate, inhibitor, or inducer
